Consider ten cell lines from the supplement of paper PMC10307832.

What all share (test): relative viability (nuclei count vs DMSO), 5 days (fraction); higher = more cells survive
Compound in assay [1]: COc1cc(N2CCC(N3CCN(C)CC3)CC2)ccc1Nc1ncc(Cl)c(Nc2ccccc2S(=O)(=O)C(C)C)n1 [NVP-TAE684] + Nc1nc2[nH]cc(CCc3ccc(C(=O)N[C@@H](CCC(=O)O)C(=O)O)cc3)c2c(=O)[nH]1 [Pemetrexed] (partner 0.2 µM)
In a few lines:
(§1)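 Relative viability divides the nuclei count in treated wells by that in vehicle wells. Lung cancer cell lines were seeded in 1536-well plates, dosed by pin tool the next day, and fixed and stained after 5 days in one step with final 0.05% Triton X-100, 1% formaldehyde and 1 ug/ml Hoechst. Dosing was a single drug or a fixed anchor-drug dose plus five library-drug doses (not always all listed) in √10 steps, and values are medians of duplicate plates imaged at 4×.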

Compound in assay [2]: C#Cc1cccc(Nc2ncnc3cc(OC)c(OCCCCCCC(=O)NO)cc23)c1 [CUDC-101] + COc1cc2c(Oc3ccc(NC(=O)C4(C(=O)Nc5ccc(F)cc5)CC4)cc3F)ccnc2cc1OCCCN1CCOCC1 [Foretinib] (partner 0.25 µM)
In a few lines:
as §1

Compound in assay [3]: COc1cc2/c(=N/c3ccc(Br)cc3F)nc[nH]c2cc1OCC1CCN(C)CC1 [Vandetanib]
The gist of the method:
(§2)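 Viability was defined as treated-well nuclei divided by vehicle-well nuclei, with the median taken over replicate plates. Cells from lung cancer lines sat overnight at 37 °C in 1536-well plates, received five √10-spaced library-drug doses by pinning on vehicle-anchored plates, and grew 5 days without medium change before one-step fixation, permeabilisation and Hoechst staining, 4× imaging and MetaXpress nuclear counts. Only plates with control CV under 25% and at least one doubling were kept.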

Compound in assay [4]: C1=CC=C2C(=C1)N=C(S2)C(C#N)C3=NC(=NC=C3)NCCC4=CN=CC=C4
The gist of the method: as §2

Regarding LU99A, the relative viability in assay [1] (first compound 0.2 µM) is 0.192; in assay [1] (first compound 0.6325 µM), 0.147; in assay [1] (first compound 2 µM), 0.194; in assay [2] (first compound 0.01 µM), 0.931; in assay [2] (first compound 0.03162 µM), 0.881; in assay [2] (first compound 0.1 µM), 0.684. For the same cell line, the relative viability in assay [2] (first compound 0.3162 µM) was determined as 0.798; in assay [2] (first compound 1 µM) it was 0.388; in assay [3] (0.02 µM), 0.839; in assay [3] (0.06325 µM), 0.846; in assay [3] (0.2 µM), 0.92; in assay [3] (0.6325 µM), 0.895. Besides, the relative viability was determined as 0.951 in assay [3] (2 µM); 0.779 in assay [4] (0.005 µM); 0.995 in assay [4] (0.01581 µM); 0.877 in assay [4] (0.05 µM); 1.04 in assay [4] (0.1581 µM); 0.972 in assay [4] (0.5 µM).

With LXF-289, the relative viability in assay [1] (first compound 0.2 µM) is 0.874; in assay [1] (first compound 0.6325 µM), 0.983; in assay [1] (first compound 2 µM) it was 0.805; in assay [2] (first compound 0.01 µM), 0.972; in assay [2] (first compound 0.03162 µM) it was 0.932; in assay [2] (first compound 0.1 µM) it was 0.937. For the same cell line, the relative viability came out at 0.877 in assay [2] (first compound 0.3162 µM); 0.497 in assay [2] (first compound 1 µM); 1.01 in assay [3] (0.02 µM); 1.02 in assay [3] (0.06325 µM); 1.03 in assay [3] (0.2 µM); 0.985 in assay [3] (0.6325 µM). Besides, the relative viability in assay [3] (2 µM) is 0.968; in assay [4] (0.005 µM) it was 0.925; in assay [4] (0.01581 µM) it was 1.09; in assay [4] (0.05 µM) it was 0.968; in assay [4] (0.1581 µM) it was 1.06; in assay [4] (0.5 µM), 0.948.

Turning to NCI-H23, the relative viability in assay [1] (first compound 0.2 µM) is 0.719; in assay [1] (first compound 0.6325 µM), 0.556; in assay [1] (first compound 2 µM), 0.395; in assay [2] (first compound 0.01 µM), 1.06; in assay [2] (first compound 0.03162 µM), 1; in assay [2] (first compound 0.1 µM), 1.04. Moreover, the relative viability in assay [2] (first compound 0.3162 µM) was 1.06; in assay [2] (first compound 1 µM) it was 0.949; in assay [3] (0.02 µM) it was 1.09; in assay [3] (0.06325 µM), 0.975; in assay [3] (0.2 µM) it was 0.894; in assay [3] (0.6325 µM) it was 0.926. In addition, the relative viability in assay [3] (2 µM) is 0.901; in assay [4] (0.005 µM), 0.691; in assay [4] (0.01581 µM) it was 0.941; in assay [4] (0.05 µM), 0.967; in assay [4] (0.1581 µM) it was 1.24; in assay [4] (0.5 µM), 1.02.

In the case of NCI-H522, the relative viability was determined as 1.13 in assay [1] (first compound 0.2 µM); 1.07 in assay [1] (first compound 0.6325 µM); 0.799 in assay [1] (first compound 2 µM); 0.915 in assay [3] (0.02 µM); 1.03 in assay [3] (0.06325 µM); 0.91 in assay [3] (0.2 µM). For the same cell line, the relative viability in assay [3] (0.6325 µM) was 0.933; in assay [3] (2 µM), 0.97; in assay [4] (0.005 µM) it was 0.958; in assay [4] (0.01581 µM) it was 0.795; in assay [4] (0.05 µM), 0.761; in assay [4] (0.1581 µM) it was 1.11. In addition, in assay [4] (0.5 µM), the relative viability was 0.878.

For NCI-H727, the relative viability in assay [2] (first compound 0.01 µM) worked out at 0.975; in assay [2] (first compound 0.03162 µM), 0.85; in assay [2] (first compound 0.1 µM) it was 0.685; in assay [2] (first compound 0.3162 µM), 0.778; in assay [2] (first compound 1 µM), 0.424; in assay [3] (0.02 µM), 0.894. The relative viability in assay [3] (0.06325 µM) is 0.809; in assay [3] (0.2 µM), 0.906; in assay [3] (0.6325 µM), 0.796; in assay [3] (2 µM), 0.681; in assay [4] (0.005 µM), 0.904; in assay [4] (0.01581 µM), 0.903. The relative viability in assay [4] (0.05 µM) came out at 0.832; in assay [4] (0.1581 µM), 1.13; in assay [4] (0.5 µM), 0.78.

For the cell line NCI-H1299, the relative viability in assay [2] (first compound 0.01 µM) was 1.08; in assay [2] (first compound 0.03162 µM), 1.06; in assay [2] (first compound 0.1 µM), 1.13; in assay [2] (first compound 0.3162 µM) it was 1.12; in assay [2] (first compound 1 µM), 1.04; in assay [3] (0.02 µM), 1.01. Also, the relative viability in assay [3] (0.06325 µM) came out at 0.963; in assay [3] (0.2 µM) it was 1.05; in assay [3] (0.6325 µM), 1.01; in assay [3] (2 µM), 1.02; in assay [4] (0.005 µM) it was 1.06; in assay [4] (0.01581 µM), 1.05. Also, the relative viability in assay [4] (0.05 µM) came to 0.95; in assay [4] (0.1581 µM) it was 1.06; in assay [4] (0.5 µM) it was 0.974.

With NCI-H1623, the relative viability in assay [2] (first compound 0.01 µM) was found to be 0.847; in assay [2] (first compound 0.03162 µM) it was 0.821; in assay [2] (first compound 0.1 µM), 0.711; in assay [2] (first compound 0.3162 µM), 0.911; in assay [2] (first compound 1 µM), 0.483; in assay [3] (0.02 µM) it was 0.891. The relative viability in assay [3] (0.06325 µM) stood at 0.905; in assay [3] (0.2 µM) it was 0.949; in assay [3] (0.6325 µM) it was 0.938; in assay [3] (2 µM) it was 0.825; in assay [4] (0.005 µM), 0.981; in assay [4] (0.01581 µM), 1.01. The relative viability in assay [4] (0.05 µM) amounted to 0.837; in assay [4] (0.1581 µM), 0.96; in assay [4] (0.5 µM) it was 0.846.

NCI-H1648: the relative viability turned out to be 0.415 in assay [1] (first compound 2 µM); 0.862 in assay [3] (0.02 µM); 0.824 in assay [3] (0.06325 µM); 0.745 in assay [3] (0.2 µM); 0.915 in assay [3] (0.6325 µM); 0.561 in assay [3] (2 µM). In addition, the relative viability in assay [4] (0.005 µM) is 0.704; in assay [4] (0.01581 µM), 0.812; in assay [4] (0.05 µM), 0.764; in assay [4] (0.1581 µM), 1.19; in assay [4] (0.5 µM), 0.75.

Regarding NCI-H1703, the relative viability stood at 0.323 in assay [2] (first compound 0.01 µM); 0.353 in assay [2] (first compound 0.1 µM); 0.402 in assay [2] (first compound 0.3162 µM); 0.424 in assay [2] (first compound 1 µM); 1.02 in assay [3] (0.02 µM); 0.673 in assay [3] (0.06325 µM). Besides, the relative viability stood at 0.963 in assay [3] (0.2 µM); 0.775 in assay [3] (0.6325 µM); 0.537 in assay [3] (2 µM); 0.814 in assay [4] (0.005 µM); 0.841 in assay [4] (0.01581 µM); 0.782 in assay [4] (0.05 µM). Besides, the figures for the relative viability in assay [4] (0.1581 µM) and in assay [4] (0.5 µM) were 0.889 and 1.14, respectively.

With NCI-H1792, the relative viability turned out to be 0.773 in assay [1] (first compound 0.2 µM); 0.799 in assay [1] (first compound 0.6325 µM); 0.799 in assay [1] (first compound 2 µM); 0.878 in assay [3] (0.02 µM); 0.829 in assay [3] (0.06325 µM); 0.974 in assay [3] (0.2 µM). For the same cell line, the relative viability in assay [3] (0.6325 µM) amounted to 0.858; in assay [3] (2 µM) it was 0.874; in assay [4] (0.01581 µM), 0.747; in assay [4] (0.05 µM), 0.924; in assay [4] (0.1581 µM), 1.2; in assay [4] (0.5 µM), 0.693.
